How the values were obtained:
Assay type in all cases: functional
[1] = test system: Staphylococcus aureus; assay: Antimicrobial activity against methicillin-susceptible Staphylococcus aureus isolated from ICU patient urine assessed as resistant isolates by broth microdilution method
[2] = test system: Haemophilus influenzae; assay: Antimicrobial activity against Haemophilus influenzae isolated from ICU patient respiratory tract assessed as resistant isolates by broth microdilution method
[3] = test system: Escherichia coli; assay: Antimicrobial activity against CTX-M ESBL producing Escherichia coli isolated from ICU patient urine assessed as resistant isolates by broth microdilution method
[4] = test system: Streptococcus pneumoniae; assay: Antimicrobial activity against penicillin-resistant Streptococcus pneumoniae isolated from ICU patient respiratory tract assessed as resistant isolates by broth microdilution method
[5] = test system: Streptococcus pneumoniae; assay: Antimicrobial activity against penicillin-resistant Streptococcus pneumoniae assessed as resistant isolates by broth microdilution method
[6] = test system: Staphylococcus epidermidis; assay: Antimicrobial activity against methicillin-susceptible Staphylococcus epidermidis isolated from ICU patient wound assessed as resistant isolates by broth microdilution method
[7] = test system: Staphylococcus aureus; assay: Antimicrobial activity against methicillin-susceptible Staphylococcus aureus isolated from ICU patient respiratory tract assessed as resistant isolates by broth microdilution method
[8] = test system: Pseudomonas aeruginosa; assay: Antimicrobial activity against carbapenem-resistant Pseudomonas aeruginosa isolated from ICU patient wound assessed as resistant isolates by broth microdilution method
[9] = test system: Streptococcus pneumoniae; assay: Antimicrobial activity against penicillin-resistant Streptococcus pneumoniae isolated from ICU patient wound assessed as resistant isolates by broth microdilution method
[10] = test system: Streptococcus pneumoniae; assay: Antimicrobial activity against penicillin-resistant Streptococcus pneumoniae isolated from ICU patient blood assessed as resistant isolates by broth microdilution method
[11] = test system: Klebsiella pneumoniae; assay: Antimicrobial activity against ESBL producing Klebsiella pneumoniae isolated from ICU patient wound assessed as resistant isolates by broth microdilution method
[12] = test system: Staphylococcus aureus; assay: Antimicrobial activity against methicillin-resistant Staphylococcus aureus isolated from ICU patient urine assessed as resistant isolates by broth microdilution method
[13] = test system: Escherichia coli; assay: Antimicrobial activity against CTX-M ESBL producing Escherichia coli isolated from ICU patient blood assessed as resistant isolates by broth microdilution method
[14] = test system: Enterococcus sp.; assay: Antimicrobial activity against vancomycin-resistant Enterococcus sp. assessed as resistant isolates by broth microdilution method
[15] = test system: Klebsiella pneumoniae; assay: Antimicrobial activity against ESBL producing Klebsiella pneumoniae isolated from ICU patient blood assessed as resistant isolates by broth microdilution method
[16] = test system: Enterococcus sp.; assay: Antimicrobial activity against vancomycin-resistant Enterococcus sp. isolated from ICU patient respiratory tract assessed as resistant isolates by broth microdilution method
[17] = test system: Klebsiella pneumoniae; assay: Antimicrobial activity against ESBL producing Klebsiella pneumoniae isolated from ICU patient urine assessed as resistant isolates by broth microdilution method
[18] = test system: Haemophilus influenzae; assay: Antimicrobial activity against Haemophilus influenzae assessed as resistant isolates by broth microdilution method
[19] = test system: Staphylococcus epidermidis; assay: Antimicrobial activity against methicillin-resistant Staphylococcus epidermidis isolated from ICU patient blood assessed as resistant isolates by broth microdilution method
[20] = test system: Escherichia coli; assay: Antimicrobial activity against CTX-M ESBL producing Escherichia coli assessed as resistant isolates by broth microdilution method
[21] = test system: Haemophilus influenzae; assay: Antimicrobial activity against Haemophilus influenzae isolated from ICU patient blood assessed as resistant isolates by broth microdilution method
[22] = test system: Staphylococcus epidermidis; assay: Antimicrobial activity against methicillin-susceptible Staphylococcus epidermidis isolated from ICU patient respiratory tract assessed as resistant isolates by broth microdilution method
[23] = test system: Pseudomonas aeruginosa; assay: Antimicrobial activity against carbapenem-resistant Pseudomonas aeruginosa isolated from ICU patient urine assessed as resistant isolates by broth microdilution method
[24] = test system: Haemophilus influenzae; assay: Antimicrobial activity against Haemophilus influenzae isolated from ICU patient wound assessed as resistant isolates by broth microdilution method
[25] = test system: Klebsiella pneumoniae; assay: Antimicrobial activity against ESBL producing Klebsiella pneumoniae isolated from ICU patient respiratory tract assessed as resistant isolates by broth microdilution method
[26] = test system: Staphylococcus aureus; assay: Antimicrobial activity against methicillin-resistant Staphylococcus aureus isolated from ICU patient wound assessed as resistant isolates by broth microdilution method
[27] = test system: Staphylococcus aureus; assay: Antimicrobial activity against methicillin-susceptible Staphylococcus aureus isolated from ICU patient wound assessed as resistant isolates by broth microdilution method
[28] = test system: Staphylococcus epidermidis; assay: Antimicrobial activity against methicillin-susceptible Staphylococcus epidermidis isolated from ICU patient blood assessed as resistant isolates by broth microdilution method
[29] = test system: Staphylococcus epidermidis; assay: Antimicrobial activity against methicillin-resistant Staphylococcus epidermidis isolated from ICU patient wound assessed as resistant isolates by broth microdilution method
[30] = test system: Pseudomonas aeruginosa; assay: Antimicrobial activity against carbapenem-resistant Pseudomonas aeruginosa isolated from ICU patient blood assessed as resistant isolates by broth microdilution method
[31] = test system: Staphylococcus epidermidis; assay: Antimicrobial activity against methicillin-resistant Staphylococcus epidermidis isolated from ICU patient urine assessed as resistant isolates by broth microdilution method
[32] = test system: Staphylococcus epidermidis; assay: Antimicrobial activity against methicillin-susceptible Staphylococcus epidermidis isolated from ICU patient urine assessed as resistant isolates by broth microdilution method
[33] = test system: Escherichia coli; assay: Antimicrobial activity against CTX-M ESBL producing Escherichia coli isolated from ICU patient wound assessed as resistant isolates by broth microdilution method
[34] = test system: Klebsiella pneumoniae; assay: Antimicrobial activity against ESBL producing Klebsiella pneumoniae assessed as resistant isolates by broth microdilution method
[35] = test system: Escherichia coli; assay: Antimicrobial activity against CTX-M ESBL producing Escherichia coli isolated from ICU patient respiratory tract assessed as resistant isolates by broth microdilution method
[36] = test system: Enterococcus sp.; assay: Antimicrobial activity against vancomycin-resistant Enterococcus sp. isolated from ICU patient wound assessed as resistant isolates by broth microdilution method
[37] = test system: Staphylococcus epidermidis; assay: Antimicrobial activity against methicillin-resistant Staphylococcus epidermidis assessed as resistant isolates by broth microdilution method
[38] = test system: Enterococcus sp.; assay: Antimicrobial activity against vancomycin-resistant Enterococcus sp. isolated from ICU patient urine assessed as resistant isolates by broth microdilution method
[39] = test system: Pseudomonas aeruginosa; assay: Antimicrobial activity against carbapenem-resistant Pseudomonas aeruginosa assessed as resistant isolates by broth microdilution method
[40] = test system: Enterococcus sp.; assay: Antimicrobial activity against vancomycin-resistant Enterococcus sp. isolated from ICU patient blood assessed as resistant isolates by broth microdilution method
[41] = test system: Staphylococcus epidermidis; assay: Antimicrobial activity against methicillin-susceptible Staphylococcus epidermidis assessed as resistant isolates by broth microdilution method
[42] = test system: Staphylococcus aureus; assay: Antimicrobial activity against methicillin-susceptible Staphylococcus aureus isolated from ICU patient blood assessed as resistant isolates by broth microdilution method
[43] = test system: Pseudomonas aeruginosa; assay: Antimicrobial activity against carbapenem-resistant Pseudomonas aeruginosa isolated from ICU patient respiratory tract assessed as resistant isolates by broth microdilution method
[44] = test system: Enterobacter cloacae; assay: Antimicrobial activity against carbapenem-resistant Enterobacter cloacae assessed as resistant isolates by broth microdilution method
[45] = test system: Staphylococcus aureus; assay: Antimicrobial activity against methicillin-resistant Staphylococcus aureus isolated from ICU patient respiratory tract assessed as resistant isolates by broth microdilution method
[46] = test system: Staphylococcus aureus; assay: Antimicrobial activity against methicillin-susceptible Staphylococcus aureus assessed as resistant isolates by broth microdilution method
[47] = test system: Enterobacter cloacae; assay: Antimicrobial activity against carbapenem-resistant Enterobacter cloacae isolated from ICU patient wound assessed as resistant isolates by broth microdilution method
[48] = test system: Staphylococcus aureus; assay: Antimicrobial activity against methicillin-resistant Staphylococcus aureus isolated from ICU patient blood assessed as resistant isolates by broth microdilution method
[49] = test system: Enterobacter cloacae; assay: Antimicrobial activity against carbapenem-resistant Enterobacter cloacae isolated from ICU patient blood assessed as resistant isolates by broth microdilution method
[50] = test system: Enterobacter cloacae; assay: Antimicrobial activity against carbapenem-resistant Enterobacter cloacae isolated from ICU patient respiratory tract assessed as resistant isolates by broth microdilution method
[51] = test system: Enterobacter cloacae; assay: Antimicrobial activity against carbapenem-resistant Enterobacter cloacae isolated from ICU patient urine assessed as resistant isolates by broth microdilution method
[52] = test system: Staphylococcus aureus; assay: Antimicrobial activity against methicillin-resistant Staphylococcus aureus assessed as resistant isolates by broth microdilution method

`O=C(O)c1cn(C2CC2)c2cc(N3CCNCC3)c(F)cc2c1=O` [CIPROFLOXACIN] gave an Activity [1] of 20%, an Activity [2] of 0% and an Activity [3] of 19.8%. For the same compound, the Activity [4] was 2.6%, the Activity [5] was 2.1% and the Activity [6] was 70.8%. The Activity [7] was 7.5%, the Activity [8] was 11.5% and the Activity [9] was 0%. For the same compound, the Activity [10] was 0%, the Activity [11] was 28.3% and the Activity [12] was 100%. For the same compound, the Activity [13] was 23.3%, the Activity [14] was 53.4% and the Activity [15] was 24.2%. The Activity [16] was 46.7%, the Activity [17] was 37.8% and the Activity [18] was 0%. The Activity [19] was 100%, the Activity [20] was 21.1% and the Activity [21] was 0%. The Activity [22] was 100%, the Activity [23] was 0% and the Activity [24] was 0%. For the same compound, the Activity [25] was 20.8%, the Activity [26] was 92.6% and the Activity [27] was 8%. For the same compound, the Activity [28] was 44.6%, the Activity [29] was 100% and the Activity [30] was 3.9%. The Activity [31] was 100%, the Activity [32] was 80% and the Activity [33] was 24.1%. For the same compound, the Activity [34] was 23.8%, the Activity [35] was 21.3% and the Activity [36] was 50%. It also gave an Activity [37] of 100%, an Activity [38] of 54.7% and an Activity [39] of 4%. It also gave an Activity [40] of 58.1%, an Activity [41] of 54.7% and an Activity [42] of 6.9%. For the same compound, the Activity [43] was 4.1%.
`CN(C)c1cc(NC(=O)CNC(C)(C)C)c(O)c2c1C[C@H]1C[C@H]3[C@H](N(C)C)C(O)=C(C(N)=O)C(=O)[C@@]3(O)C(O)=C1C2=O` [TIGECYCLINE] gave an Activity [44] of 0.6%, an Activity [1] of 0% and an Activity [45] of 0%. For the same compound, the Activity [46] was 0%, the Activity [3] was 0% and the Activity [7] was 0%. It also gave an Activity [8] of 3.9%, an Activity [47] of 0% and an Activity [12] of 0%. For the same compound, the Activity [13] was 0%, the Activity [48] was 0% and the Activity [14] was 0%. It also gave an Activity [16] of 0%, an Activity [49] of 0% and an Activity [50] of 0%. For the same compound, the Activity [20] was 0%, the Activity [23] was 2% and the Activity [26] was 0%. For the same compound, the Activity [27] was 0%, the Activity [30] was 0% and the Activity [33] was 0%. The Activity [35] was 0%, the Activity [36] was 0% and the Activity [38] was 0%. It also gave an Activity [39] of 0.4%, an Activity [51] of 6.3% and an Activity [40] of 0%. The Activity [42] was 0%, the Activity [52] was 0% and the Activity [43] was 0%.
In the case of GENTAMICIN, the Activity [44] is reported as 3%, the Activity [3] is reported as 1.1% and the Activity [8] is reported as 0%. It also gave an Activity [11] of 18.9%, an Activity [47] of 0% and an Activity [13] of 6.9%. It also gave an Activity [15] of 9.1%, an Activity [17] of 22.2% and an Activity [49] of 8.3%. It also gave an Activity [50] of 1.9%, an Activity [20] of 3% and an Activity [23] of 0%. The Activity [25] was 14.2%, the Activity [30] was 0% and the Activity [33] was 6.9%. It also gave an Activity [34] of 15.2%, an Activity [35] of 3.3% and an Activity [39] of 0%. The Activity [51] was 6.3% and the Activity [43] was 0%.
